Marks after values point to notes of the source that are not given here.
Tested on: Caco-2 monolayer
Test: Caco-2 monolayer transmembrane transport, apical to basolateral
Format: in vitro ADME, human
Conditions: for PappAtoB: 40 µM flavonoid, 6 h, A to B, mean ± SD (n = 3); for apparent permeability coefficient (in words): comparison among the dietary flavonoids, Table 2
[1] = RD (rice flour digested products) 400 µg/mL
[2] = WD (wheat flour digested products) 400 µg/mL

PappAtoB [1]	Increase in PappAtoB (RD vs no substrate)	Increase in PappAtoB (WD vs no substrate)	PappAtoB [2]	PappAtoB (No substrate)	change of apparent permeability coefficient (in words) (RD group vs no substrate)	change of apparent permeability coefficient (in words) (WD group vs no substrate)	SMILES	apparent permeability coefficient (in words)
6.54 ± 0.03^a × 10^-6 cm/s	−0.29	0.18					O=c1c(O)c(-c2ccc(O)c(O)c2)oc2cc(O)cc(O)c12 [Quercetin]	
9.07 ± 0.01^b × 10^-6 cm/s	0.63	2.21	17.79 ± 0.03^c × 10^-6 cm/s				O=c1c(O)c(-c2cc(O)c(O)c(O)c2)oc2cc(O)cc(O)c12 [Myricetin]	
5.43 ± 0.06^a × 10^-6 cm/s	−0.57	−0.12	11.15 ± 1.54^b × 10^-6 cm/s				O=C1C[C@@H](c2ccc(O)cc2)Oc2cc(O)cc(O)c21 [Naringenin]	notably higher apparent permeability coefficients
25.87 ± 0.04^b × 10^-6 cm/s	−0.09	−0.46	15.54 ± 0.46^a × 10^-6 cm/s				O=c1cc(-c2ccc(O)cc2)oc2c([C@@H]3O[C@H](CO)[C@@H](O)[C@H](O)[C@H]3O)c(O)cc(O)c12 [Vitexin]	highest apparent permeability coefficient
1.26 ± 0.02^b × 10^-6 cm/s	0.96	4.71	3.67 ± 0.15^c × 10^-6 cm/s	0.64 ± 0.05^a × 10^-6 cm/s			O=c1c(O)c(-c2ccc(O)cc2)oc2cc(O[C@@H]3O[C@H](CO)[C@@H](O)[C@H](O)[C@H]3O)cc(O)c12 [Kaempferol-7-O-β-glucoside]	comparatively poor
1.80 ± 0.01^b × 10^-6 cm/s	0.34	0.77	2.38 ± 0.09^c × 10^-6 cm/s				C[C@@H]1O[C@@H](O[C@H]2[C@H](Oc3cc(O)c4c(c3)O[C@H](c3ccc(O)cc3)CC4=O)O[C@H](CO)[C@@H](O)[C@@H]2O)[C@H](O)[C@H](O)[C@H]1O [Naringin]	
15.66 ± 0.09^a × 10^-6 cm/s	−0.37	−0.29	17.71 ± 0.43^b × 10^-6 cm/s				O=C1c2c(O)cc(O)cc2OC(c2ccc(O)c(O)c2)C1O (stereo not shown) [Taxifolin]	notably higher apparent permeability coefficients
5.40 ± 0.09^a × 10^-6 cm/s	−0.31	0.50	11.68 ± 0.07^c × 10^-6 cm/s	7.78 ± 0.05^b × 10^-6 cm/s			COc1cc(-c2oc3cc(O)cc(O)c3c(=O)c2O[C@@H]2O[C@H](CO[C@@H]3O[C@@H](C)[C@H](O)[C@@H](O)[C@H]3O)[C@@H](O)[C@H](O)[C@H]2O)ccc1O [Isorhamnetin-3-O-rutinoside]	
1.47 ± 0.05^a × 10^-6 cm/s	−0.73	0.72	9.61 ± 0.28^c × 10^-6 cm/s				C[C@@H]1O[C@@H](Oc2c(-c3ccc(O)c(O)c3)oc3cc(O)cc(O)c3c2=O)[C@H](O)[C@H](O)[C@H]1O [Quercitrin]	
6.64 ± 0.03^a × 10^-6 cm/s	−0.29	0.23	11.42 ± 0.91^c × 10^-6 cm/s				COc1cc(-c2oc3cc(O)cc(O)c3c(=O)c2O)ccc1O [Isorhamnetin]	

More lines, now with the values behind:

SMILES	PappAtoB [1]	Increase in PappAtoB (RD vs no substrate)	Increase in PappAtoB (WD vs no substrate)	PappAtoB [2]	PappAtoB (No substrate)	change of apparent permeability coefficient (in words) (RD group vs no substrate)	change of apparent permeability coefficient (in words) (WD group vs no substrate)	apparent permeability coefficient (in words)
O=c1c(O)c(-c2ccccc2)oc2cc(O)cc(O)c12 [Galangin]	8.76 ± 0.01^b × 10^-6 cm/s	0.28	0.75	12.01 ± 0.49^c × 10^-6 cm/s				
O=C1c2c(O)cc(O)cc2O[C@H](c2cc(O)c(O)c(O)c2)[C@H]1O [Dihydromyricetin]	16.38 ± 0.03^b × 10^-6 cm/s	−0.05	−0.14	14.82 ± 0.15^a × 10^-6 cm/s				notably higher apparent permeability coefficients
O=c1c(-c2ccc(O)cc2)coc2cc(O)cc(O)c12 [Genistein]	14.45 ± 0.09^b × 10^-6 cm/s	0.21	0.92	22.89 ± 0.09^c × 10^-6 cm/s				
OC[C@H]1O[C@@H](Oc2cc3c(O)cc(O)cc3[o+]c2-c2ccc(O)c(O)c2)[C@H](O)[C@@H](O)[C@@H]1O [Cyanidin-3-O-glucoside]	7.85 ± 0.07^a × 10^-6 cm/s	−0.01	0.00	7.97 ± 0.06^a × 10^-6 cm/s	7.96 ± 0.08^a × 10^-6 cm/s			
Oc1cc(O)c2c(c1)O[C@H](c1ccc(O)c(O)c1)[C@@H](O)C2 [(+)-Catechin]	18.75 ± 0.09^b × 10^-6 cm/s	0.67	−0.04		11.22 ± 0.06^a × 10^-6 cm/s			notably higher apparent permeability coefficients
COc1ccc([C@@H]2CC(=O)c3c(O)cc(O)cc3O2)cc1O [Hesperetin]	1.98 ± 0.02^a × 10^-6 cm/s	−0.73	0.67	12.18 ± 0.53^c × 10^-6 cm/s		decrease in permeability		
Oc1cc(O)c2c(c1)O[C@H](c1ccc(O)c(O)c1)[C@H](O)C2 [(-)-Epicatechin]	37.30 ± 0.04^c × 10^-6 cm/s	0.62	0.18	27.24 ± 0.45^b × 10^-6 cm/s				notably higher apparent permeability coefficients
COc1ccc(-c2coc3cc(O)ccc3c2=O)cc1 [Formononetin]	12.01 ± 0.01^a × 10^-6 cm/s	−0.49	−0.05	22.68 ± 0.95^b × 10^-6 cm/s		decrease in permeability		notably higher apparent permeability coefficients
O=c1cc(-c2ccccc2)oc2cc(O)c(O)c(O)c12 [Baicalein]	2.28 ± 0.01^a × 10^-6 cm/s	−0.21	0.31	3.79 ± 0.10^c × 10^-6 cm/s		decrease in the apparent permeability coefficient	increase	comparatively poor
O=c1cc(-c2ccc(O)cc2)oc2cc(O[C@@H]3O[C@H](CO)[C@@H](O)[C@H](O)[C@H]3O)cc(O)c12 [Apigenin-7-O-glucoside]	6.37 ± 0.02^a × 10^-6 cm/s	0.11	0.95	11.24 ± 0.64^b × 10^-6 cm/s				
O=c1cc(-c2ccc(O)cc2)oc2cc(O)cc(O)c12 [Apigenin]	3.13 ± 0.01^b × 10^-6 cm/s	0.90	1.54	4.18 ± 0.06^c × 10^-6 cm/s				comparatively poor
